Results reported in ChEMBL document CHEMBL5244223, “l,8-Naphthalimide based DNA intercalators and anticancer agents. A systematic review from 2007 to 2017” (Eur J Med Chem, 2018).

What was measured:
Saccharomyces cerevisiae = experiment: Antifungal activity against Saccharomyces cerevisiae MTCC 36 assessed as zone of inhibition at 100 ug/ml by well diffusion assay; assay type: functional; conditions: read-out: IZ
Pseudomonas aeruginosa = experiment: Antibacterial activity against Pseudomonas aeruginosa MTCC 741 assessed as zone of inhibition at 50 ug/ml by well diffusion assay; assay type: functional; conditions: read-out: IZ
Candida albicans = experiment: Antifungal activity against Candida albicans MTCC 227 assessed as zone of inhibition at 100 ug/ml by well diffusion assay; assay type: functional; conditions: read-out: IZ
Aspergillus niger = experiment: Antifungal activity against Aspergillus niger MTCC 282 assessed as zone of inhibition at 100 ug/ml by well diffusion assay; assay type: functional; conditions: read-out: IZ
[1] = test system: Staphylococcus epidermidis; experiment: Antibacterial activity against Staphylococcus epidermidis MTCC 435 assessed as zone of inhibition at 50 ug/ml by well diffusion assay; assay type: functional; conditions: read-out: IZ
Rhizopus arrhizus = experiment: Antifungal activity against Rhizopus oryzae MTCC 262 assessed as zone of inhibition at 100 ug/ml by well diffusion assay; assay type: functional; conditions: read-out: IZ
Staphylococcus aureus = experiment: Antibacterial activity against Staphylococcus aureus MTCC 96 assessed as zone of inhibition at 50 ug/ml by well diffusion assay; assay type: functional; conditions: read-out: IZ
Escherichia coli = experiment: Antibacterial activity against Escherichia coli MTCC 443 assessed as zone of inhibition at 50 ug/ml by well diffusion assay; assay type: functional; conditions: read-out: IZ
[2] = Cytotoxicity against human QSG7701 cells assessed as inhibition of cell growth incubated for 48 hrs by MTT assay; assay type: toxicity, cell-based
Bel-7402 = experiment: Cytotoxicity against human Bel-7402 cells assessed as inhibition of cell growth incubated for 48 hrs by MTT assay; assay type: functional, cell-based; conditions: Bel-7402, 48 h
MCF7 = experiment: Antiproliferative activity against human MCF7 cells assessed as inhibition of cell proliferation incubated for 48 hrs by MTT assay; assay type: functional, cell-based; conditions: MCF7, 48 h
HeLa = experiment: Antiproliferative activity against human HeLa cells assessed as inhibition of cell proliferation incubated for 48 hrs by MTT assay; assay type: functional, cell-based
SMMC-7721 = experiment: Antiproliferative activity against human SMMC-7721 cells assessed as inhibition of cell proliferation incubated for 48 hrs by MTT assay; assay type: functional, cell-based; conditions: SMMC-7721, 48 h
[3] = Antiproliferative activity against human QSG7701 cells assessed as inhibition of cell proliferation incubated for 48 hrs by MTT assay; assay type: toxicity, cell-based
HepG2 = experiment: Antiproliferative activity against human HepG2 cells assessed as inhibition of cell proliferation incubated for 48 hrs by MTT assay; assay type: functional, cell-based; conditions: HepG2, 48 h
HCT-116 = experiment: Antiproliferative activity against human HCT-116 cells assessed as inhibition of cell proliferation incubated for 48 hrs by MTT assay; assay type: functional, cell-based; conditions: HCT-116, 48 h
K562 = experiment: Antiproliferative activity against human K562 cells assessed as inhibition of cell proliferation incubated for 48 hrs by MTT assay; assay type: functional, cell-based; conditions: K562, 48 h
MDA-MB-231 = experiment: Antiproliferative activity against human MDA-MB-231 cells assessed as inhibition of cell proliferation incubated for 48 hrs by MTT assay; assay type: functional, cell-based; conditions: MDA-MB-231, 48 h

| SMILES | zone of inhibition at 100 µg/mL (Saccharomyces cerevisiae) [mm] | zone of inhibition at 50 µg/mL (Pseudomonas aeruginosa) [mm] | zone of inhibition at 100 µg/mL (Candida albicans) [mm] | zone of inhibition at 100 µg/mL (Aspergillus niger) [mm] | zone of inhibition at 50 µg/mL [1] [mm] | zone of inhibition at 100 µg/mL (Rhizopus arrhizus) [mm] | zone of inhibition at 50 µg/mL (Staphylococcus aureus) [mm] | zone of inhibition at 50 µg/mL (Escherichia coli) [mm] | other results |
| --- | --- | --- | --- | --- | --- | --- | --- | --- | --- |
| CCCC1=C(C(=O)OC)C(CN2C(=O)c3cccc4cccc(c34)C2=O)NC(=O)N1 (configuration not stated) | 12 | 12 | 12 | 12 | 15 | 12 | 15 | 12 |  |
| NCCCNCCCCNCCCN1C(=O)c2cccc3cc([N+](=O)[O-])cc(c23)C1=O |  |  |  |  |  |  |  |  | IC50 at 48 h [2]: > 50 µM; IC50 (Bel-7402): 1.06 µM |
| NCCCNCCCCNCCCN1C(=O)c2cccc3c(Cl)ccc(c23)C1=O |  |  |  |  |  |  |  |  | IC50 at 48 h [2]: > 50 µM; IC50 (Bel-7402): 1.06 µM |
| CCC1=C(C(=O)OC(F)(F)F)C(CN2C(=O)c3cccc4cccc(c34)C2=O)NC(=O)N1 (configuration not stated) | 12 | 12 | 12 | 12 | 15 | 12 | 15 | 12 |  |
| Clc1ccccc1C(c1ccccc1)(c1ccccc1)n1ccnc1 [CLOTRIMAZOLE] | 22 |  | 22 | 22 |  | 22 |  |  |  |
| O=C1c2cccc3cc(-n4cc(-c5ccccc5)nn4)cc(c23)C(=O)N1CCN1CCNCC1 |  |  |  |  |  |  |  |  | IC50 (MCF7): 0.3 µM; IC50 (HeLa): 0.3 µM; IC50 (SMMC-7721): 0.3 µM |
| CCOC(=O)C1=C(CC)NC(=O)NC1CN1C(=O)c2cccc3cccc(c23)C1=O (configuration not stated) | 12 | 12 | 12 | 12 | 15 | 12 | 15 | 12 |  |
| CCC1=C(C(=O)OC)C(CN2C(=O)c3cccc4cccc(c34)C2=O)NC(=O)N1 (configuration not stated) | 12 | 12 | 12 | 12 | 15 | 12 | 15 | 12 |  |
| NCCCCNCCCCNCCCCN1C(=O)c2cccc3cccc(c23)C1=O |  |  |  |  |  |  |  |  | IC50 at 48 h [2]: > 50 µM; IC50 (Bel-7402): 1.06 µM |
| COC(=O)C1=C(C)NC(=S)NC1CN1C(=O)c2cccc3cccc(c23)C1=O (configuration not stated) | 12 | 12 | 12 | 12 | 15 | 12 | 15 | 12 |  |
| COC(=O)C1=C(C)NC(=O)NC1CN1C(=O)c2cccc3cccc(c23)C1=O (configuration not stated) | 12 | 12 | 12 | 12 | 15 | 12 | 15 | 12 |  |
| NCCCNCCCCNCCCN1C(=O)c2cccc3c(Br)ccc(c23)C1=O |  |  |  |  |  |  |  |  | IC50 at 48 h [2]: > 50 µM; IC50 (Bel-7402): 1.06 µM |
| CCC1=C(C(=O)OC(F)(F)F)C(CN2C(=O)c3cccc4cccc(c34)C2=O)NC(=S)N1 (configuration not stated) | 12 | 12 | 12 | 12 | 15 | 12 | 15 | 12 |  |
| CCN(CC)CCN1C(=O)c2cccc3cc(-n4ccnn4)cc(c23)C1=O |  |  |  |  |  |  |  |  | IC50 (MCF7): 0.3 µM; IC50 (HeLa): 0.3 µM; IC50 (SMMC-7721): 0.3 µM |
| CCCC1=C(C(=O)OC)C(CN2C(=O)c3cccc4cccc(c34)C2=O)NC(=S)N1 (configuration not stated) | 12 | 12 | 12 | 12 | 15 | 12 | 15 | 12 |  |
| CCCCCCCNC(=O)Nc1cc2c3c(cccc3c1)C(=O)N(CCN(C)C)C2=O |  |  |  |  |  |  |  |  | IC50 at 48 h [3]: > 50 µM; IC50 (HepG2): > 50 µM; IC50 (HCT-116): > 50 µM; IC50 (K562): > 50 µM; IC50 (MDA-MB-231): > 50 µM; IC50 (SMMC-7721): > 50 µM |
| CCC1=C(C(=O)OC)C(CN2C(=O)c3cccc4cccc(c34)C2=O)NC(=S)N1 (configuration not stated) | 12 | 12 | 12 | 12 | 15 | 12 | 15 | 12 |  |
| CN(C)CCN1C(=O)c2cccc3cc(NC(=O)CNCCCNCCCNCCCN)cc(c23)C1=O |  |  |  |  |  |  |  |  | IC50 at 48 h [3]: 6.42 µM; IC50 (HepG2): 6.42 µM; IC50 (HCT-116): 6.42 µM; IC50 (K562): 6.42 µM; IC50 (MDA-MB-231): 6.42 µM; IC50 (SMMC-7721): 6.42 µM |
